US9896710B2, “Glycosyltransferase derived from Dolwoe and use thereof” (KOREA ADVANCED INSTITUTE OF SCIENCE AND TECHNOLOGY, priority 2014, dated 2018)

System: UDP-glycosyltransferase GpUGT23
Experiment: In vitro glycosyltransferase assay of purified recombinant GpUGT23 with ginsenoside substrates and UDP-glucose
Assay type: biochemical, Dolwoe (Gynostemma pentaphyllum)
Conditions: purified GpUGT23 30 μg, ginsenoside 5 mM, UDP-glucose 50 mM, 10 mM PBS pH 7, 37° C., 12 hours, products: CK->gypenoside LXXV, F2->gypenoside XVII, Rd->Rb1, F1->notoginsenoside U; for conversion of the ginsenoside by GpUGT23 (glycosyltransfer activity), HPLC: UV 203 nm (FIGS. 3 and 4); for conversion of the ginsenoside by GpUGT23 (glycosyltransfer activity), TLC: TLC (FIG. 2)
Protocol: A glycosyltransferase assay was performed in a reaction buffer (10 mM PBS buffer, pH 7) containing the purified GpUGT23 (30 μg), a ginsenoside compound (5 mM) and UDP-glucose (50 mM). For this assay, 4 different types of ginsenosides, including CK (Compound K), F2, Rd, and F1, were used and reacted with the enzyme of the present invention.
The reaction mixture was incubated at 37° C. for 12 hours, and then the products were analyzed by thin-layer chromatography (TLC) or high performance liquid chromatography (HPLC).
TLC analysis was performed using a mobile phase (acetone:methanol:DDW=65:35:10 vol/vol) and a 60F254 silica gel plate (Merck, Germany). The resolved product on the TLC plate was detected by spraying the plate with 10% (vol/vol) sulfuric acid (H2SO4) and heating it at 110° C. for 5 minutes (FIG. 2).
HPLC analysis was performed using ODS(2) C18 column (Phenomenex, USA). Water and acetonitrile gradient application time and a component ratio are as follows: at a flow rate of 1 mL per minute, at 0 minutes, 68% water and 32% acetonitrile; 8 minutes, 35% water and 65% acetonitrile; 12 minutes, 0% water and 100% acetonitrile; 20 minutes, 0% water and 100% acetonitrile; 20.1 minutes, 68% water and 32% acetonitrile; and 28 minutes, 68% water and 32% acetonitrile (FIGS. 3 and 4).
Ginsenosides were detected by using a UV-detector (Agilent, USA) at a wavelength of 203 nm.
Substrate specificity and regioselectivity of GpUGT23 were examined by the method described in Example 2.
First, the recombinant GpUGT of Example 1, GpUGT23, was reacted with 9 types of ginsenosides (PPD, Rh2, Rg3, CK, F2, Rd, PPT, F1, and Rh1) in the presence of UDP-glucose, and the reaction products of CK, F2, Rd, and F1 were analyzed by TLC (thin-layer chromatography).
To further analyze these, 4 different types of ginsenosides (CK, F2, Rd, and F1) were incubated with GpUGT23, and then the products converted by the recombinant GpUGT23 were analyzed by TLC, and the results are shown in FIG. 2. The results were confirmed by comparing their migrating spots with migrating spots of CK, Gyp75 (gypenoside LXXV), F2, Gyp17 (gypenoside XVII), Rd, Rb1, and F1 used as reference samples.

Row | Structure (SMILES) | conversion of the ginsenoside by GpUGT23 (glycosyltransfer activity), HPLC | conversion of the ginsenoside by GpUGT23 (glycosyltransfer activity), TLC
1 | CC(C)=CCC[C@](C)(O)[C@H]1CC[C@]2(C)[C@@H]1[C@H](O)C[C@@H]1[C@@]3(C)CC[C@H](O[C@@H]4O[C@H](CO)[C@@H](O)[C@H](O)[C@H]4O)C(C)(C)[C@@H]3CC[C@]12C [Rh2] | did not react | –
2 | CC(C)=CCC[C@](C)(O[C@@H]1O[C@H](CO)[C@@H](O)[C@H](O)[C@H]1O)[C@H]1CC[C@]2(C)[C@@H]1[C@H](O)C[C@@H]1[C@@]3(C)CC[C@H](O[C@@H]4O[C@H](CO)[C@@H](O)[C@H](O)[C@H]4O[C@@H]4O[C@H](CO)[C@@H](O)[C@H](O)[C@H]4O)C(C)(C)[C@@H]3CC[C@]12C [Rd] | converted | converted
3 | CC(C)=CCC[C@](C)(O)[C@H]1CC[C@]2(C)[C@@H]1[C@H](O)C[C@@H]1[C@@]3(C)CC[C@H](O)C(C)(C)[C@@H]3[C@@H](O)C[C@]12C [PPT, protopanaxatriol] | did not react | –
4 | CC(C)=CCC[C@](C)(O[C@@H]1O[C@H](CO)[C@@H](O)[C@H](O)[C@H]1O)[C@H]1CC[C@]2(C)[C@@H]1[C@H](O)C[C@@H]1[C@@]3(C)CC[C@H](O[C@@H]4O[C@H](CO)[C@@H](O)[C@H](O)[C@H]4O)C(C)(C)[C@@H]3CC[C@]12C [F2] | converted | converted
5 | CC(C)=CCC[C@](C)(O[C@@H]1O[C@H](CO)[C@@H](O)[C@H](O)[C@H]1O)[C@H]1CC[C@]2(C)[C@@H]1[C@H](O)C[C@@H]1[C@@]3(C)CC[C@H](O)C(C)(C)[C@@H]3[C@@H](O)C[C@]12C [F1] | converted | converted
6 | CC(C)=CCC[C@](C)(O)[C@H]1CC[C@]2(C)[C@@H]1[C@H](O)C[C@@H]1[C@@]3(C)CC[C@H](O)C(C)(C)[C@@H]3[C@@H](O[C@@H]3O[C@H](CO)[C@@H](O)[C@H](O)[C@H]3O[C@@H]3O[C@@H](C)[C@H](O)[C@@H](O)[C@H]3O)C[C@]12C [Rg2] | did not transfer a sugar | –
7 | CC(C)=CCC[C@](C)(O)[C@H]1CC[C@]2(C)[C@@H]1[C@H](O)C[C@@H]1[C@@]3(C)CC[C@H](O[C@@H]4O[C@H](CO)[C@@H](O)[C@H](O)[C@H]4O[C@@H]4O[C@H](CO)[C@@H](O)[C@H](O)[C@H]4O)C(C)(C)[C@@H]3CC[C@]12C [Rg3] | did not react | –
8 | CC(C)=CCCC(C)(O)[C@H]1CC[C@]2(C)[C@@H]1[C@H](O)C[C@@H]1[C@@]3(C)CC[C@H](O)C(C)(C)[C@@H]3CC[C@]12C (stereo in doubt) [PPD, protopanaxadiol] | did not react | –
9 | CC(C)=CCC[C@](C)(O)[C@H]1CC[C@]2(C)[C@@H]1[C@H](O)C[C@@H]1[C@@]3(C)CC[C@H](O)C(C)(C)[C@@H]3[C@@H](O[C@@H]3O[C@H](CO)[C@@H](O)[C@H](O)[C@H]3O)C[C@]12C [Rh1] | did not react | –
10 | CC(C)=CCC[C@](C)(O[C@@H]1O[C@H](CO)[C@@H](O)[C@H](O)[C@H]1O)[C@H]1CC[C@]2(C)[C@@H]1[C@H](O)C[C@@H]1[C@@]3(C)CC[C@H](O)C(C)(C)[C@@H]3CC[C@]12C [CK, Compound K] | converted | converted
